Laboratory results as given in ChEMBL document CHEMBL6153025, “Multidrug-resistant bacteria quorum-sensing inhibitors: A particular focus on Pseudomonasaeruginosa” (Eur J Med Chem, 2025).
Converted amounts (≈) assume the structure as drawn. Blank lines part the entries; values can stand above or below the compound they belong to.

Columns and labels:
Pseudomonas aeruginosa [1] = assay: Antibacterial activity against Pseudomonas aeruginosa ATCC 27853 assessed as bacterial growth inhibition by agar diffusion assay; assay type: functional
Pseudomonas aeruginosa [2] = assay: Antibacterial activity against Pseudomonas aeruginosa PAO1 assessed as reduction in bacterial growth by broth microdilution method; assay type: functional, organism-based
[3] = Inhibition of quorum sensing system in Pseudomonas aeruginosa PAO1
Pseudomonas aeruginosa [4] = assay: Antibiofilm activity against Pseudomonas aeruginosa PAO1 assessed as inhibition of biofilm formation at 100 uM relative to control; assay type: functional; design: scale not given: the % may be the effect or the level left
[5] = molecular target: T1, Transcriptional activator protein LasR (Pseudomonas aeruginosa (strain ATCC 15692 / PAO1 / 1C / PRS 101 / LMG12228)) (UniProt P25084); assay: Inhibition of LasR-mediated quorum sensing system in Pseudomonas aeruginosa PAO1 at 128 ug/ml relative to control; conditions: dose 128.0 µg/ml
T1 sequence (whole entry): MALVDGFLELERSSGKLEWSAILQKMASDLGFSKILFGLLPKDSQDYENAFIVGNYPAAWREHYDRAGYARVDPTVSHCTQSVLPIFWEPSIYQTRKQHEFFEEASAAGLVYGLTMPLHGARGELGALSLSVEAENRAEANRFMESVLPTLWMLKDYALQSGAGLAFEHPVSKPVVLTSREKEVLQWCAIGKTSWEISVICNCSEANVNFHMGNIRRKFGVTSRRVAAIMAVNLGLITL

Pseudomonas aeruginosa [6] = assay: Antibiofilm activity against Pseudomonas aeruginosa PA14 assessed as reduction in biofilm biomass production at 18 ug/ml relative to control; assay type: functional; design: scale not given: the % may be the effect or the level left; conditions: dose 18 µg/ml
Pseudomonas aeruginosa [7] = assay: Antivirulence activity in Pseudomonas aeruginosa PAO1 assessed as reduction in pyocyanin production at 10 uM incubated for 24 hrs by absorbance based analysis relative to control; assay type: functional; design: scale not given: the % may be the effect or the level left
Pseudomonas aeruginosa [8] = assay: Antibacterial activity against Pseudomonas aeruginosa ATCC 15442 assessed as reduction in bacterial cell growth incubated for 24 hrs by two fold serial microdilution method; assay type: functional
Bacillus subtilis = assay: Antibacterial activity against Bacillus subtilis; assay type: functional
Bacillus pumilus = assay: Antibacterial activity against Bacillus pumilus; assay type: functional
Staphylococcus aureus [9] = assay: Antibacterial activity against Methicillin-sensitive Staphylococcus aureus; assay type: functional
Escherichia coli = assay: Antibacterial activity against Escherichia coli; assay type: functional
Pseudomonas aeruginosa [10] = assay: Antibacterial activity against Pseudomonas aeruginosa; assay type: functional
Pseudomonas aeruginosa [11] = assay: Antivirulence activity against Pseudomonas aeruginosa PAO1 assessed as reduction in pyocyanin level at 10 uM relative to control; assay type: functional; design: scale not given: the % may be the effect or the level left
Pseudomonas aeruginosa [12] = assay: Anti-virulence effect in Pseudomonas aeruginosa PAO1 assessed as inhibition of rhamnolipid production at 10 uM relative to control; assay type: functional; design: scale not given: the % may be the effect or the level left
Pseudomonas aeruginosa [13] = assay: Antibacterial activity against Pseudomonas aeruginosa PAO1-L; assay type: functional, organism-based
[14] = Inhibition of quorum sensing system in Pseudomonas aeruginosa PAO1 expressing lasB-gfp
Pseudomonas aeruginosa [15] = assay: Anti-virulence activity against Pseudomonas aeruginosa PAO1-L assessed as reduction in pyocyanin production at 10 uM incubated for 24 hrs by absorbance based analysis relative to control; assay type: functional; design: scale not given: the % may be the effect or the level left
Staphylococcus aureus [16] = assay: Antibacterial activity against Methicillin-resistant Staphylococcus aureus; assay type: functional

Structure (SMILES): O=C(CSC1=NC2C=C([N+](=O)[O-])C=CC2=N1)Cc1ccc(Br)cc1 (centres undefined)
MIC (Pseudomonas aeruginosa [1]): > 512 µg/mL

Structure (SMILES): O=C1O/C(=C\Br)C=C1Br
IC50 (Pseudomonas aeruginosa [2]): 17.4 µM

Structure (SMILES): O=C(CNc1ccc(C(=O)/C=C/c2ccc(Cl)c(Cl)c2)cc1)N[C@@H]1CCOC1=O
IC50 [3]: 46.8 µM

Structure (SMILES): O=c1c(O[C@@H]2O[C@H](CO)[C@@H](O)[C@H](O)[C@H]2O)c(-c2ccc(O)c(O)c2)oc2cc(O)cc(O)c12 [ISOQUERCETIN]
Activity (Pseudomonas aeruginosa [4]): 18%

Structure (SMILES): O=C(CSc1nc2ccccc2s1)c1ccccc1
MIC (Pseudomonas aeruginosa [1]): > 128 µg/mL

Structure (SMILES): O=C(CNc1ccc(C(=O)/C=C/c2ccc(F)cc2)cc1)N[C@@H]1CCOC1=O
IC50 [3]: 46.8 µM

Structure (SMILES): COc1cc(O)c(C(=O)O)c(/C=C/c2ccc(S(F)(F)(F)(F)F)cc2)c1
Activity (Pseudomonas aeruginosa [6]): 18.95%

Structure (SMILES): O=[N+]([O-])c1ccc(CNCCCCCCCCNc2ccnc3cc(Cl)ccc23)cc1
Activity (Pseudomonas aeruginosa [7]): 97%
MIC (Pseudomonas aeruginosa [8]): > 2 µM

Structure (SMILES): CCCCCCCCCCC(=O)NN1C(=O)CN(c2ccccc2O)C1=O
MIC (Bacillus subtilis): > 512 µg/mL
MIC (Bacillus pumilus): > 512 µg/mL
MIC (Staphylococcus aureus [9]): > 512 µg/mL
MIC (Escherichia coli): > 512 µg/mL
MIC (Pseudomonas aeruginosa [10]): > 512 µg/mL
Activity (Pseudomonas aeruginosa [11]): 38.62%
Activity (Pseudomonas aeruginosa [12]): 2.76%

Structure (SMILES): O=c1cc(-c2ccc(O)c(O)c2)oc2c([C@H]3C[C@@H](O)[C@H](O)[C@@H](CO)O3)c(O)cc(O)c12
Activity (Pseudomonas aeruginosa [4]): 18%

Structure (SMILES): O=C(CN[C@H]1CCOC1=O)Nc1ccc(C/C=C/c2ccc(Cl)c(Cl)c2)cc1
MIC (Pseudomonas aeruginosa [2]): 5 µM (≈ 2.1 µg/mL)

Structure (SMILES): N#CCc1ccc(OCC(O)Cn2cnc3ccc(Cl)cc3c2=O)c(F)c1 (centres undefined)
IC50 (Pseudomonas aeruginosa [13]): 2.2 µM

Structure (SMILES): COc1cc(/C=C/c2cncs2)c(C(=O)O)c(O)c1CC=C(C)C
Activity (Pseudomonas aeruginosa [6]): 21.06%

Structure (SMILES): O=C(CNc1ccc(C(=O)/C=C/c2cc(Cl)cc(Cl)c2)cc1)N[C@@H]1CCOC1=O
IC50 [3]: 46.8 µM

Structure (SMILES): N#CCc1ccc(OC[C@@H](O)Cn2cnc3ccc(Cl)cc3c2=O)cc1
IC50 [14]: 7 µM
IC50 (Pseudomonas aeruginosa [13]): 4.3 µM
Activity (Pseudomonas aeruginosa [15]): 95%

Structure (SMILES): COc1cc(/C=C/c2ccc(C#N)cc2F)c(C(=O)O)c(O)c1CC=C(C)C
Activity (Pseudomonas aeruginosa [6]): 19.43%

Structure (SMILES): O=C(CCCCCOc1ccc(C(F)(F)F)cc1)NNC(=O)Cn1c(=O)oc2ncccc21
MIC (Bacillus subtilis): > 512 µg/mL
MIC (Bacillus pumilus): > 512 µg/mL
MIC (Staphylococcus aureus [9]): > 512 µg/mL
MIC (Staphylococcus aureus [16]): > 512 µg/mL
MIC (Escherichia coli): > 512 µg/mL
MIC (Pseudomonas aeruginosa [10]): > 512 µg/mL
Activity (Pseudomonas aeruginosa [11]): 53.1%

Structure (SMILES): Cc1ccc(OCCCCCC(=O)NN2C(=O)CN(c3ccccc3O)C2=O)cc1
MIC (Bacillus subtilis): > 512 µg/mL
MIC (Bacillus pumilus): > 512 µg/mL
MIC (Staphylococcus aureus [9]): > 512 µg/mL
MIC (Escherichia coli): > 512 µg/mL
MIC (Pseudomonas aeruginosa [10]): > 512 µg/mL
Activity (Pseudomonas aeruginosa [11]): 61%

Structure (SMILES): Clc1ccc2c(NCCCCCCCCNCc3cc4ccccc4o3)ccnc2c1
Activity (Pseudomonas aeruginosa [7]): 97%
MIC (Pseudomonas aeruginosa [8]): > 2 µM

Structure (SMILES): CC(=O)NCCCCCCCCNc1ccnc2cc(Cl)ccc12
Activity (Pseudomonas aeruginosa [7]): 42%
MIC (Pseudomonas aeruginosa [8]): > 2 µM

Structure (SMILES): O=C(CSc1ccc2ccccc2n1)c1ccccc1
MIC (Pseudomonas aeruginosa [1]): > 128 µg/mL

Structure (SMILES): COc1ccc(OCCCCCCCC(=O)NNC(=O)Cn2c(=O)oc3ncccc32)cc1
MIC (Bacillus subtilis): > 512 µg/mL
MIC (Bacillus pumilus): > 512 µg/mL
MIC (Staphylococcus aureus [9]): > 512 µg/mL
MIC (Staphylococcus aureus [16]): > 512 µg/mL
MIC (Escherichia coli): > 512 µg/mL
MIC (Pseudomonas aeruginosa [10]): > 512 µg/mL
Activity (Pseudomonas aeruginosa [11]): 53.1%
Activity (Pseudomonas aeruginosa [12]): 6.34%

Structure (SMILES): O=C(CCCCCOc1ccc([N+](=O)[O-])cc1)NNC(=O)Cn1c(=O)oc2ncccc21
MIC (Bacillus subtilis): > 512 µg/mL
MIC (Bacillus pumilus): > 512 µg/mL
MIC (Staphylococcus aureus [9]): > 512 µg/mL
MIC (Staphylococcus aureus [16]): > 512 µg/mL
MIC (Escherichia coli): > 512 µg/mL
MIC (Pseudomonas aeruginosa [10]): > 512 µg/mL

Structure (SMILES): COc1cc(O)c(C(=O)O)c(CCc2ccc(S(F)(F)(F)(F)F)cc2)c1
Activity (Pseudomonas aeruginosa [6]): 19.48%

Other lines, results leading:

MIC (Pseudomonas aeruginosa [1]): > 128 µg/mL
Structure (SMILES): O=C(CSc1ccc2ccccc2n1)c1ccc2c(c1)OCCO2

inhibition [5]: 78.8%
Structure (SMILES): O=C(CCN1CCOCC1)Oc1cccc([N+](=O)[O-])c1

inhibition [5]: 90.2%
Structure (SMILES): O=C(CN1CCSCC1)Oc1cccc([N+](=O)[O-])c1

IC50 [3]: 56.5 µM
Structure (SMILES): COc1cccc(/C=C/C(=O)c2ccc(NCC(=O)N[C@@H]3CCOC3=O)cc2)c1

inhibition [5]: 50.2%
Structure (SMILES): O=C(CN1CCOCC1)Oc1ccccc1[N+](=O)[O-]

inhibition [5]: 78.8%
Structure (SMILES): CN1CCN(CC(=O)Oc2cccc([N+](=O)[O-])c2)CC1

inhibition [5]: 61.6%
Structure (SMILES): O=C(CN1CCOCC1)Oc1cccc([N+](=O)[O-])c1

MIC (Pseudomonas aeruginosa [1]): > 128 µg/mL
Structure (SMILES): COc1ccc(C(=O)CSc2ccc3ccccc3n2)c(OC)c1

inhibition [5]: 82.3%
Structure (SMILES): O=C(CN1CCOCC1)Oc1ccc([N+](=O)[O-])cc1

IC50 [3]: 67.8 µM
Structure (SMILES): O=C(CNc1ccc(C(=O)/C=C/c2ccccc2Cl)cc1)N[C@@H]1CCOC1=O

inhibition [5]: 50.2%
Structure (SMILES): CC(C)(C)c1cccc(OC(=O)CN2CCOCC2)c1
